Read-outs that look alike come from different tables or passages of the source. Numbered stars: 1 amine (or outer) side, 2 acyl side, 3 side chain; on linkers, the order of the positions; unused ones are H or OH. Square brackets hold non-standard residues; d marks the D form. Peptide text beside a SMILES is read from it. * marks the point of attachment. 5FAM = O=C1OC2(c3ccc(O)cc3Oc3cc(O)ccc32)c2ccc(C(=O)*)cc21; NHCH2C6H4(4-CH2CONH2) = NC(=O)Cc1ccc(CN*)cc1; X1 = O=C(Cc1ccc(CN[*:1])cc1)[*:2]
Target: T1, IL-6R (Homo sapiens, UniProt P08887)
T1 construct: purchased Creative Biomart IL6R-584H
T1 sequence (P08887 20-355 limits assumed): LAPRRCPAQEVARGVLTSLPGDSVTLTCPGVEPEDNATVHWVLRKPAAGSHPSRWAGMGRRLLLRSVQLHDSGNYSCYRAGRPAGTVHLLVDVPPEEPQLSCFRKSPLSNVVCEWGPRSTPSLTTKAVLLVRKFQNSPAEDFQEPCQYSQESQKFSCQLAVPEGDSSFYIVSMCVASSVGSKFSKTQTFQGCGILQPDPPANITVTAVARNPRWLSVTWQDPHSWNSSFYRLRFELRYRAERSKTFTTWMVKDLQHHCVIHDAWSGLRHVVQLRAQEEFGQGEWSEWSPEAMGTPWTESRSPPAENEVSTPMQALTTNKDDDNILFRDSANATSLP
Assay: MST binding affinity of resynthesized NNP hits to IL-6R
Protocol: Hit binding affinity to various targets were determined using Microscale Thermophoresis (MST). MST experiments were performed on a Monolith NT.115pico (NanoTemper Technologies GmbH, Munich, Germany). Measurements were performed at room temperature, in triplicate with incubation periods of 15, 30 and 45 minutes. […] Targets were labeled using Nanotemper Monolith 2nd Generation Protein Labeling Kits. RED-MALEIMIDE (Maleimide-647-dye) labeling kit was used for K-Ras and RED-NHS (NHS-647-dye) labeling kit was used for IL-6, IL-6R, TNFα and ASGPR. The buffer for the ASGPR contained 20 mM HEPES pH 7.4, 150 mM NaCl, 10 mM MgCl2, 2 mM CaCl2, 0.05% Pluronic F-127, and 1 mM DTT; for IL-6 contained 20 mM HEPES pH 7.4, 150 mM KCl, 10 mM MgCl2, and 0.1% Pluronic F-127; for the soluble IL-6 receptor 20 mM HEPES pH 7.4, 150 mM NaCl, 10 mM MgCl2, and 0.05% Tween-20; for K-Ras 20 mM HEPES pH 7.4, 150 mM NaCl, 10 mM MgCl2, 0.05% Tween-20 and 1 mM DTT; for TNFα 10 mM HEPES pH 7.4, 150 mM NaCl, 10 mM MgCl2, 0.05% Polysorbate-20. Triplicate data was analyzed using MO.AffinityAnalysis software (NanoTemper Technologies GmbH).

[1] = MST, NNP2 library hit, target SIL-6R, one-site binding model

| SMILES | Kd [1] | further results |
| --- | --- | --- |
| CC(C)C[C@H](NC(=O)[C@@H](CCCNC(=N)N)NC(=O)[C@@H](C)NC(=O)Cc1ccc(CNC(=O)[C@H](CC(C)C)NC(=O)[C@@H](CCCNC(=N)N)NC(=O)[C@@H](CCC(=O)O)NC(=O)Cc2ccc(CNC(=O)[C@@H](NC(=O)[C@@H](C)NC(=O)CNC(=O)Cc3ccc(CNC(=O)[C@@H](NC(=O)[C@@H](CCCNC(=N)N)NC(=O)[C@H]4CCCN4C(=O)Cc4ccc(CNC(=O)[C@H](CC(C)C)NC(=O)[C@H](NC(=O)[C@@H](CC(N)=O)NC(=O)Cc5ccc(CNC(=O)[C@H](CC(C)C)NC(=O)[C@@H](CCCNC(=N)N)NC(=O)[C@@H](CC(C)C)NC(=O)Cc6ccc(CNC(=O)[C@H](Cc7ccccc7)NC(=O)[C@@H](Cc7c[nH]c8ccccc78)NC(=O)[C@@H](CCCNC(=N)N)NC(=O)c7ccc8c(c7)C(=O)OC87c8ccc(O)cc8Oc8cc(O)ccc87)cc6)cc5)[C@H](C)O)cc4)C(C)C)cc3)C(C)C)cc2)cc1)C(=O)NCc1ccc(CC(=O)N2CCC[C@@H]2C(=O)N[C@H](CCCNC(=N)N)C(=O)N[C@@H](C)C(=O)NCc2ccc(CC(=O)N[C@H](Cc3ccccc3)C(=O)N[C@H](CCCNC(=N)N)C(=O)NCC(=O)NCc3ccc(CC(N)=O)cc3)cc2)cc1 [IL6R-87-5, Fluorescein-(D)Arg-(D)Trp-(L)Phe-PAM-(D)Leu-(D)Arg-(L)Leu-PAM-(D)Asn-(D)Thr-(L)Leu-PAM-(D)Pro-(D)Arg-(L)Val-PAM-Gly-(D)Ala-(L)Val-PAM-(D)Glu-(D)Arg-(L)Leu-PAM-(D)Ala-(D)Arg-(L)Leu- PAM-(D)Pro-(D)Arg-(L)Ala-PAM-(D)Phe-(D)Arg-Gly-PAM] (5FAM-[dR][dW]F[X1][dL][dR]L[X1][dN][dT]L[X1][dP][dR]V[X1]G[dA]V[X1][dE][dR]L[X1][dA][dR]L[X1][dP][dR]A[X1][dF][dR]G-{NHCH2C6H4(4-CH2CONH2)}) | 330 nM |  |
| CC(C)C[C@H](NC(=O)[C@@H](CCCNC(=N)N)NC(=O)[C@@H](C)NC(=O)Cc1ccc(CNC(=O)[C@H](Cc2ccccc2)NC(=O)[C@@H](CCC(=O)O)NC(=O)[C@H]2CCCN2C(=O)Cc2ccc(CNC(=O)[C@H](Cc3ccccc3)NC(=O)[C@@H](CCCCN)NC(=O)[C@@H](C)NC(=O)Cc3ccc(CNC(=O)[C@H](CC(C)C)NC(=O)[C@@H](CCCNC(=N)N)NC(=O)[C@@H](Cc4c[nH]c5ccccc45)NC(=O)Cc4ccc(CNC(=O)[C@H](C)NC(=O)[C@@H](CCCCN)NC(=O)[C@H]5CCCN5C(=O)Cc5ccc(CNC(=O)[C@@H](NC(=O)[C@@H](CC(N)=O)NC(=O)[C@H]6CCCN6C(=O)Cc6ccc(CNC(=O)[C@H](Cc7ccccc7)NC(=O)[C@@H](Cc7c[nH]c8ccccc78)NC(=O)[C@@H](CCCNC(=N)N)NC(=O)c7ccc8c(c7)C(=O)OC87c8ccc(O)cc8Oc8cc(O)ccc87)cc6)C(C)C)cc5)cc4)cc3)cc2)cc1)C(=O)NCc1ccc(CC(=O)N[C@H](Cc2c[nH]c3ccccc23)C(=O)N[C@H](CCCCN)C(=O)N[C@@H](CC(C)C)C(=O)NCc2ccc(CC(=O)N[C@H](Cc3ccccc3)C(=O)N[C@H](CCCCN)C(=O)NCC(=O)NCc3ccc(CC(N)=O)cc3)cc2)cc1 [IL6R-87-6, Fluorescein-(D)Arg-(D)Trp-(L)Phe-PAM-(D)Pro-(D)Asn-(L)Val-PAM-(D)Pro-(D)Lys-(L)Ala-PAM-(D)Trp-(D)Arg-(L)Leu-PAM-(D)Ala-(D)Lys-(L)Phe-PAM-(D)Pro-(D)Glu-(L)Phe-PAM-(D)Ala-(D)Arg- (L)Leu-PAM-(D)Trp-(D)Lys-(L)Leu-PAM-(D)Phe-(D)Lys-Gly-PAM] (5FAM-[dR][dW]F[X1][dP][dN]V[X1][dP][dK]A[X1][dW][dR]L[X1][dA][dK]F[X1][dP][dE]F[X1][dA][dR]L[X1][dW][dK]L[X1][dF][dK]G-{NHCH2C6H4(4-CH2CONH2)}) | 3.3 nM |  |
| CC(C)C[C@H](NC(=O)[C@@H](CCCNC(=N)N)NC(=O)[C@@H](C)NC(=O)Cc1ccc(CNC(=O)[C@H](Cc2ccccc2)NC(=O)[C@@H](CCCNC(=N)N)NC(=O)[C@@H](CC(N)=O)NC(=O)Cc2ccc(CNC(=O)[C@H](Cc3ccccc3)NC(=O)[C@@H](CCCCN)NC(=O)[C@@H](C)NC(=O)Cc3ccc(CNC(=O)[C@H](CC(C)C)NC(=O)[C@@H](CCC(=O)O)NC(=O)[C@@H](CCCCN)NC(=O)Cc4ccc(CNC(=O)[C@@H](NC(=O)[C@@H](CCC(=O)O)NC(=O)[C@@H](Cc5ccccc5)NC(=O)Cc5ccc(CNC(=O)[C@H](CC(C)C)NC(=O)[C@@H](CCCNC(=N)N)NC(=O)[C@@H](CC(C)C)NC(=O)Cc6ccc(CNC(=O)[C@H](Cc7ccccc7)NC(=O)[C@@H](Cc7c[nH]c8ccccc78)NC(=O)[C@@H](CCCNC(=N)N)NC(=O)c7ccc8c(c7)C(=O)OC87c8ccc(O)cc8Oc8cc(O)ccc87)cc6)cc5)C(C)C)cc4)cc3)cc2)cc1)C(=O)NCc1ccc(CC(=O)N[C@H](Cc2c[nH]c3ccccc23)C(=O)N[C@H](CCCCN)C(=O)N[C@@H](CC(C)C)C(=O)NCc2ccc(CC(=O)N[C@H](C)C(=O)N[C@@H](C(=O)N[C@@H](CC(C)C)C(=O)NCc3ccc(CC(N)=O)cc3)C(C)C)cc2)cc1 [IL6R-87-10, Fluorescein-(D)Arg-(D)Trp-(L)Phe-PAM-(D)Leu-(D)Arg-(L)Leu-PAM-(D)Phe-(D)Glu-(L)Val-PAM-(D)Lys-(D)Glu-(L)Leu-PAM-(D)Ala-(D)Lys-(L)Phe-PAM-(D)Asn-(D)Arg-(L)Phe-PAM-(D)Ala-(D)Arg- (L)Leu-PAM-(D)Trp-(D)Lys-(L)Leu-PAM-(D)Ala-(D)Val-(L)Leu-PAM] (5FAM-[dR][dW]F[X1][dL][dR]L[X1][dF][dE]V[X1][dK][dE]L[X1][dA][dK]F[X1][dN][dR]F[X1][dA][dR]L[X1][dW][dK]L[X1][dA][dV]L-{NHCH2C6H4(4-CH2CONH2)}) |  | Kd (IL-6R, ester versus amide amino acid-PAM bond polymers, library NNP2): 20 nM |
| CC(C)C[C@H](NC(=O)[C@@H](CCCNC(=N)N)NC(=O)[C@@H](C)NC(=O)Cc1ccc(COC(=O)[C@H](CC(C)C)NC(=O)[C@@H](CCCNC(=N)N)NC(=O)[C@@H](CCC(=O)O)NC(=O)Cc2ccc(COC(=O)[C@H](C)NC(=O)[C@@H](CCCCN)NC(=O)[C@@H](Cc3ccc(O)cc3)NC(=O)Cc3ccc(COC(=O)[C@H](C)NC(=O)[C@@H](CCCNC(=N)N)NC(=O)[C@@H](Cc4ccccc4)NC(=O)Cc4ccc(COC(=O)[C@H](Cc5ccccc5)NC(=O)[C@@H](CO)NC(=O)[C@@H](CCCNC(=N)N)NC(=O)Cc5ccc(COC(=O)[C@@H](NC(=O)[C@@H](CO)NC(=O)[C@@H](Cc6ccc(O)cc6)NC(=O)Cc6ccc(COC(=O)[C@H](Cc7ccccc7)NC(=O)[C@H](NC(=O)[C@@H](CC(N)=O)NC(=O)c7ccc8c(c7)C(=O)OC87c8ccc(O)cc8Oc8cc(O)ccc87)C(C)C)cc6)C(C)C)cc5)cc4)cc3)cc2)cc1)C(=O)OCc1ccc(CC(=O)N2CCC[C@@H]2C(=O)N[C@H](CCCNC(=N)N)C(=O)N[C@@H](C)C(=O)OCc2ccc(CC(=O)N[C@H](Cc3ccccc3)C(=O)N[C@H](CCCCN)C(=O)NCC(=O)OCc3ccc(CC(N)=O)cc3)cc2)cc1 [IL6R-93-12] |  | Kd (read-out: MST (microscale thermophoresis) KD (nM) [95% conf. int], IL-6R, ester versus amide amino acid-PAM bond polymers, library NNP2): 3.7 nM |
